In PubChem BioAssay AID1963826 (Molecular Pharmacology Branch, DTP, NCI, 2024):

Tested on: 926638-142-R-J1-PDC complex spheroid viability
Test: Anticancer human tumor 926638-142-R-J1-PDC patient-derived endometrial carcinoma cell line growth inhibition [POLQ]
Conditions: for IC50: curve of first compound; for viability, T/C: stronger effect = lower value
Procedure, shortened: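 Patient-derived tumour cells were co-cultured with HUVEC and mesenchymal stem cells as multicellular spheroids at 37 °C. They were treated with POLQ inhibitors (novobiocin, ART-558, RP6685) alone or combined with other agents. Top concentrations were at or near clinical Cmax (otherwise 10 microM; SN-38 at 1 microM), decreasing in half-log steps.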

[1] = second compound 0.0316 µM, first compound 0.0316 µM
[2] = second compound 0.0316 µM, first compound 0.1 µM
[3] = second compound 0.0316 µM, first compound 0.316 µM
[4] = second compound 0.0316 µM, first compound 1 µM
[5] = second compound 0.0316 µM, first compound 3.16 µM
[6] = second compound 0.0316 µM, first compound 10 µM
[7] = second compound 0.1 µM, first compound 0.0316 µM
[8] = second compound 0.1 µM, first compound 0.1 µM
[9] = second compound 0.1 µM, first compound 0.316 µM
[10] = second compound 0.1 µM, first compound 1 µM
[11] = second compound 0.1 µM, first compound 3.16 µM
[12] = second compound 0.1 µM, first compound 10 µM
[13] = second compound 0.316 µM, first compound 0.0316 µM
[14] = second compound 0.316 µM, first compound 0.1 µM
[15] = second compound 0.316 µM, first compound 0.316 µM
[16] = second compound 0.316 µM, first compound 1 µM
[17] = second compound 0.316 µM, first compound 3.16 µM
[18] = second compound 0.316 µM, first compound 10 µM
[19] = second compound 1 µM, first compound 0.0316 µM
[20] = second compound 1 µM, first compound 0.1 µM
[21] = second compound 1 µM, first compound 0.316 µM
[22] = second compound 1 µM, first compound 1 µM
[23] = second compound 1 µM, first compound 3.16 µM
[24] = second compound 1 µM, first compound 10 µM
[25] = second compound 3.16 µM, first compound 0.0316 µM
[26] = second compound 3.16 µM, first compound 0.1 µM
[27] = second compound 3.16 µM, first compound 0.316 µM
[28] = second compound 3.16 µM, first compound 1 µM
[29] = second compound 3.16 µM, first compound 3.16 µM
[30] = second compound 3.16 µM, first compound 10 µM
[31] = second compound 10 µM, first compound 0.0316 µM
[32] = second compound 10 µM, first compound 0.1 µM
[33] = second compound 10 µM, first compound 0.316 µM
[34] = second compound 10 µM, first compound 1 µM
[35] = second compound 10 µM, first compound 3.16 µM
[36] = second compound 10 µM, first compound 10 µM
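Further: spheroids exposed to drugs for one week before readout.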
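Wherever viability, T/C is given: percent viability relative to DMSO vehicle control wells set as 100%.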

With CCCS(=O)(=O)Nc1ccc(F)c(C(=O)c2c[nH]c3ncc(-c4ccc(Cl)cc4)cc23)c1F + Cc1cccc(N(C)C(=O)C2C(O)CCN2c2nc(C)cc(C(F)(F)F)c2C#N)c1 the IC50 (second compound 0.0316 µM) was 9510 nM, the IC50 (second compound 0.1 µM) was over 10000 nM and the IC50 (second compound 0.316 µM) was over 10000 nM. It also gave an IC50 (second compound 1 µM) of over 10000 nM, an IC50 (second compound 3.16 µM) of 9330 nM and an IC50 (second compound 10 µM) of over 10000 nM. The viability, T/C [1] was 110%, the viability, T/C [2] was 95.8% and the viability, T/C [3] was 97.4%. The viability, T/C [4] was 103%, the viability, T/C [5] was 102% and the viability, T/C [6] was 47.6%. The viability, T/C [7] was 117%, the viability, T/C [8] was 103% and the viability, T/C [9] was 96.2%. It also gave a viability, T/C [10] of 96.9%, a viability, T/C [11] of 86.4% and a viability, T/C [12] of 58.2%. For the same compound, the viability, T/C [13] was 114%, the viability, T/C [14] was 123% and the viability, T/C [15] was 94.2%. The viability, T/C [16] was 97%, the viability, T/C [17] was 80.4% and the viability, T/C [18] was 55.1%. For the same compound, the viability, T/C [19] was 95.1%, the viability, T/C [20] was 99.4% and the viability, T/C [21] was 89%. For the same compound, the viability, T/C [22] was 110%, the viability, T/C [23] was 86% and the viability, T/C [24] was 49.8%. For the same compound, the viability, T/C [25] was 104%, the viability, T/C [26] was 114% and the viability, T/C [27] was 87.1%. It also gave a viability, T/C [28] of 88.9%, a viability, T/C [29] of 94.7% and a viability, T/C [30] of 46.7%. For the same compound, the viability, T/C [31] was 97.7%, the viability, T/C [32] was 94.1% and the viability, T/C [33] was 77.1%. It also gave a viability, T/C [34] of 76.4%, a viability, T/C [35] of 89.4% and a viability, T/C [36] of 56%.
With COc1ccc([C@@H](O)c2cc(-c3ncnc4cc(N5CCOCC5)ccc34)c(F)cc2Cl)nn1 + Cc1cccc(N(C)C(=O)C2C(O)CCN2c2nc(C)cc(C(F)(F)F)c2C#N)c1 the IC50 (second compound 0.0316 µM) was 459 nM, the IC50 (second compound 0.1 µM) was 546 nM and the IC50 (second compound 0.316 µM) was 399 nM. It also gave an IC50 (second compound 1 µM) of 493 nM, an IC50 (second compound 3.16 µM) of 484 nM and an IC50 (second compound 10 µM) of 415 nM. The viability, T/C [1] was 76.7%, the viability, T/C [2] was 93.2% and the viability, T/C [3] was 58.1%. It also gave a viability, T/C [4] of 26.9%, a viability, T/C [5] of 12.9% and a viability, T/C [6] of 7.35%. For the same compound, the viability, T/C [7] was 99%, the viability, T/C [8] was 80.7% and the viability, T/C [9] was 74.2%. For the same compound, the viability, T/C [10] was 24.3%, the viability, T/C [11] was 11.5% and the viability, T/C [12] was 9.24%. It also gave a viability, T/C [13] of 77.3%, a viability, T/C [14] of 71.1% and a viability, T/C [15] of 57.2%. It also gave a viability, T/C [16] of 24.6%, a viability, T/C [17] of 13.3% and a viability, T/C [18] of 7.22%. For the same compound, the viability, T/C [19] was 107%, the viability, T/C [20] was 89.7% and the viability, T/C [21] was 65.9%. The viability, T/C [22] was 26.8%, the viability, T/C [23] was 14.7% and the viability, T/C [24] was 9.12%. It also gave a viability, T/C [25] of 83.5%, a viability, T/C [26] of 88.1% and a viability, T/C [27] of 57.8%. The viability, T/C [28] was 32.7%, the viability, T/C [29] was 12.2% and the viability, T/C [30] was 9.15%. The viability, T/C [31] was 76.5%, the viability, T/C [32] was 94% and the viability, T/C [33] was 56%. It also gave a viability, T/C [34] of 24%, a viability, T/C [35] of 12.9% and a viability, T/C [36] of 9.62%.
